# According to US20260070945A1, “MACROCYCLIC IMMUNOMODULATORS” (Bristol-Myers Squibb Company, priority 2022, published 2026):
# *1 amine or outer side, *2 acyl side, *3 side chain or, on linkers, in order; H or OH if unused. Where a SMILES comes first, the peptide text is derived from it. Bridges are numbered along the chain shown (N, C = ends). [ ]: non-standard residue; d: D form. The star is where a group is joined. ξ: configuration not given here. Phe(3-CF3) = N[C@@H](Cc1cccc(C(F)(F)F)c1)C(=O)O; Phe(4-COOH) = N[C@@H](Cc1ccc(C(=O)O)cc1)C(=O)O; Bip = N[C@@H](Cc1ccc(-c2ccccc2)cc1)C(=O)O; Phe(3-Me) = Cc1cccc(C[C@H](N)C(=O)O)c1; γGlu = O=C(O)[C@H](CCC(=O)[*:2])N[*:1]; Abu(3S-NH2) = C[C@H](N)[C@H](N)C(=O)O; βAsp = O=C(O)[C@H](CC(=O)[*:2])N[*:1]; NH(CH2)12COOH = O=C(O)CCCCCCCCCCCCN*; Cyclopropanecarbonyl = O=C(C1CC1)*; Val(3-OH) = CC(C)(O)[C@H](N)C(=O)O; aIle = CC[C@@H](C)[C@H](N)C(=O)O; hArg = N=C(N)NCCCC[C@H](N)C(=O)O; 4Pal = N[C@@H](Cc1ccncc1)C(=O)O; Cha = N[C@@H](CC1CCCCC1)C(=O)O; Cit = NC(=O)NCCC[C@H](N)C(=O)O; Ile(3ξ) = CCC(C)[C@H](N)C(=O)O; Thr(3ξ) = CC(O)[C@H](N)C(=O)O; Chg = N[C@H](C(=O)O)C1CCCCC1; 12Ado = NCCCCCCCCCCCC(=O)O; Carboxymethyl = O=C(O)C*; NMeA = CN[C@@H](C)C(=O)O; Orn = NCCC[C@H](N)C(=O)O; Aun = NCCCCCCCCCCC(=O)O; Dab = NCC[C@H](N)C(=O)O; Dap = NC[C@H](N)C(=O)O; AEEA = NCCOCCOCC(=O)O
# Target: T1, PD-1/PD-L1 interaction (PE-labeled human PD-L1-Ig binding to Jurkat cell line over-expressing human PD-1) (Homo sapiens, UniProt Q15116)
# T1 construct: expressed in transfected cells; host or cells: Jurkat
# Experiment: Jurkat-PD-1 Cell Binding High-Content Screening Assay (CBA)
# Details: Jurkat-hPD-1 cells, PE-labeled PD-L1-Ig 20 nM final; read-out: Jurkat HPD1 PDL1 IC50
# Procedure, shortened: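 Jurkat cells overexpressing human PD-1 (8×10^3/well, DMEM + 10% FCS) preincubated with compound 2 h at 37 °C, then PE-labelled human PD-L1-Ig (20 nM final) for 1 h. Cells fixed in paraformaldehyde with Hoechst 33342; bound PD-L1 quantified by high-content imaging.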
# T1 sequence (Q15116 25-288): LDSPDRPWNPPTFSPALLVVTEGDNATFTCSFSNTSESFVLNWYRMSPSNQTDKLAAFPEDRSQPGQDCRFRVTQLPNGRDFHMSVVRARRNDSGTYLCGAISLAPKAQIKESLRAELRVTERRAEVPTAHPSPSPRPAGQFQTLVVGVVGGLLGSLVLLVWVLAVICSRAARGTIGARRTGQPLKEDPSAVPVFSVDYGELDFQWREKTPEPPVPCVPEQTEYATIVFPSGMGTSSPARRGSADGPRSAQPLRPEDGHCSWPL
row,IC50 [nM],Structure (SMILES)
1,19.6,Cc1cccc(C[C@@H]2NC(=O)[C@H](CC(=O)O)NC(=O)[C@H](Cc3ccc(OCC(=O)O)cc3)NC(=O)[C@H](C(C)O)NC(=O)CSC[C@@H](C(=O)N[C@@H](CCN)C(=O)NCCOCCOCC(=O)NCCCCCCCCCCC(=O)O)NC(=O)[C@H](CC(=O)O)NC(=O)[C@H](C(C)C)NC(=O)[C@H](CC3CCCCC3)NC(=O)[C@H](CCN)NC(=O)[C@@H](CC(C)C)NC(=O)[C@H](C)N(C)C(=O)[C@H](Cc3ccc(OCC(=O)O)cc3)NC(=O)[C@H](Cc3ccc(-c4ccccc4)cc3)NC(=O)[C@H](Cc3ccc(C(=O)O)cc3)NC2=O)c1 (stereo partly drawn) [Example 2479] ({CH2CO}-[Thr(3ξ)]Y(Carboxymethyl)D[Phe(3-Me)][Phe(4-COOH)][Bip]Y(Carboxymethyl)[NMeA][dL][Dab][Cha]VDC[Dab][AEEA][Aun]-OH; thioether N-14)
2,109,CCC(C)[C@@H]1NC(=O)[C@H](Cc2ccc(-c3ccccc3)cc2)NC(=O)[C@H](C(C)C)NC(=O)[C@H](Cc2c[nH]c3ccccc23)NC(=O)[C@H](CC(=O)O)NC(=O)[C@H](Cc2ccc(OCC(=O)O)cc2)NC(=O)[C@H](CN)NC(=O)CSC[C@@H](C(=O)N[C@@H](CCCN)C(=O)N[C@@H](CO)C(=O)NCCCCCCCCCCCC(=O)O)NC(=O)[C@H](C(C)O)NC(=O)[C@H](C(C)C)NC(=O)[C@H](CC2CCCCC2)NC(=O)[C@H](CCN)NC(=O)[C@@H](CC(C)C)NC(=O)[C@H](C)N(C)C1=O (stereo partly drawn) [Example 2409] ({CH2CO}-[Dap]Y(Carboxymethyl)DWV[Bip][Ile(3ξ)][NMeA][dL][Dab][Cha]V[Thr(3ξ)]C[Orn]S[12Ado]-OH; thioether N-14)
3,40.9,Cc1cccc(C[C@@H]2NC(=O)[C@H](CC(=O)O)NC(=O)[C@H](Cc3ccc(OCC(=O)O)cc3)NC(=O)[C@H](Cc3ccncc3)NC(=O)CSC[C@@H](C(=O)N[C@@H](CCCN)C(=O)N[C@@H](CO)C(=O)NCCCCCCCCCCCC(=O)O)NC(=O)[C@H](C(C)O)NC(=O)[C@H](C(C)C)NC(=O)[C@H](CC3CCCCC3)NC(=O)[C@H](CCN)NC(=O)[C@@H](CC(C)C)NC(=O)[C@H](C)N(C)C(=O)[C@H](CCCCNC(=O)C3CC3)NC(=O)[C@H](Cc3ccc(-c4ccccc4)cc3)NC(=O)[C@H](Cc3ccc(O)cc3)NC2=O)c1 (stereo partly drawn) [Example 2404] ({CH2CO}-[4Pal]Y(Carboxymethyl)D[Phe(3-Me)]Y[Bip]K(Cyclopropanecarbonyl)[NMeA][dL][Dab][Cha]V[Thr(3ξ)]C[Orn]S[12Ado]-OH; thioether N-14)

# Second part, the compound before the results:
row,Structure (SMILES),IC50 [nM]
1,Cc1cccc(C[C@@H]2NC(=O)[C@H](CC(=O)O)NC(=O)[C@H](Cc3ccc(C(=O)O)cc3)NC(=O)[C@H](Cc3ccc(OCC(=O)O)cc3)NC(=O)CSC[C@@H](C(=O)NCC(=O)N[C@@H](CCC(=O)O)C(=O)NCCOCCOCC(=O)N[C@@H](CC(=O)NCCOCCOCC(=O)NCCCCCCCCCCC(=O)O)C(=O)O)NC(=O)[C@H](CO)NC(=O)[C@H](C(C)C)NC(=O)[C@H](CC(C)C)NC(=O)[C@H](CC(N)=O)NC(=O)[C@@H](CC(C)C)NC(=O)[C@H](C)N(C)C(=O)[C@H](C(C)C)NC(=O)[C@H](Cc3ccc(-c4ccccc4)cc3)NC(=O)[C@H](CC(C)C)NC2=O)c1 [Example 1021] ({CH2CO}-Y(Carboxymethyl)[Phe(4-COOH)]D[Phe(3-Me)]L[Bip]V[NMeA][dL]NLVSCGE[AEEA][βAsp][AEEA][Aun]-OH; thioether N-14),76.2
2,CC(=O)NCCCC[C@@H]1NC(=O)[C@H](C(C)(C)O)NC(=O)[C@H](CC2CCCCC2)NC(=O)[C@H](CCN)NC(=O)[C@@H](CC(C)C)NC(=O)[C@H](C)N(C)C(=O)[C@H](CCC(N)=O)NC(=O)[C@H](Cc2ccc(-c3ccccc3)cc2)NC(=O)[C@H](Cc2ccc(C(=O)O)cc2)NC(=O)[C@H](Cc2cccc(C(F)(F)F)c2)NC(=O)[C@H](CC(=O)O)NC(=O)[C@H](Cc2ccc(OCC(=O)O)cc2)NC(=O)[C@H]([C@H](C)N)NC(=O)CSC[C@@H](C(=O)N[C@@H](CCN)C(=O)NCCCCCCCCCCCCC(=O)O)NC1=O [Example 1191] ({CH2CO}-[Abu(3S-NH2)]Y(Carboxymethyl)D[Phe(3-CF3)][Phe(4-COOH)][Bip]Q[NMeA][dL][Dab][Cha][Val(3-OH)]K(Ac)C[Dab]-{NH(CH2)12COOH}; thioether N-14),7.4
3,Cc1cccc(C[C@@H]2NC(=O)[C@H](CC(=O)O)NC(=O)[C@H](Cc3ccc(C(=O)O)cc3)NC(=O)[C@H](CCN)NC(=O)CSC[C@@H](C(=O)N[C@@H](CCN)C(=O)NCCCCCCCCCCC(=O)O)NC(=O)[C@H](CO)NC(=O)[C@H](C(C)(C)O)NC(=O)[C@H](CC3CCCCC3)NC(=O)[C@H](CCN)NC(=O)[C@@H](CC(C)C)NC(=O)[C@H](C)N(C)C(=O)[C@H](Cc3ccc(OCC(=O)O)cc3)NC(=O)[C@H](Cc3ccc(-c4ccccc4)cc3)NC(=O)[C@H](C3CCCCC3)NC2=O)c1 [Example 1302] ({CH2CO}-[Dab][Phe(4-COOH)]D[Phe(3-Me)][Chg][Bip]Y(Carboxymethyl)[NMeA][dL][Dab][Cha][Val(3-OH)]SC[Dab][Aun]-OH; thioether N-14),17.6
4,Cc1cccc(C[C@@H]2NC(=O)[C@H](CC(=O)O)NC(=O)[C@H](Cc3ccc(OCC(=O)O)cc3)NC(=O)[C@H](CCCNC(=N)N)NC(=O)CSC[C@@H](C(=O)N[C@@H](CCN)C(=O)NCCCCCCCCCCC(=O)O)NC(=O)[C@H](C(C)O)NC(=O)[C@H](CO)NC(=O)[C@H](CC3CCCCC3)NC(=O)[C@H](CCN)NC(=O)[C@@H](CC(C)C)NC(=O)[C@H](C)N(C)C(=O)[C@H](Cc3ccc(OCC(=O)O)cc3)NC(=O)[C@H](Cc3ccc(-c4ccccc4)cc3)NC(=O)[C@H](Cc3ccc(OCC(=O)O)cc3)NC2=O)c1 (stereo partly drawn) [Example 2370] ({CH2CO}-RY(Carboxymethyl)D[Phe(3-Me)]Y(Carboxymethyl)[Bip]Y(Carboxymethyl)[NMeA][dL][Dab][Cha]S[Thr(3ξ)]C[Dab][Aun]-OH; thioether N-14),35.8
5,Cc1cccc(C[C@@H]2NC(=O)[C@H](CC(=O)O)NC(=O)[C@H](Cc3ccc(OCC(=O)O)cc3)NC(=O)[C@H]([C@@H](C)O)NC(=O)CSC[C@@H](C(=O)N[C@@H](CCN)C(=O)NCCOCCOCC(=O)NCCCCCCCCCCC(=O)O)NC(=O)[C@H](CC(N)=O)NC(=O)[C@H](C(C)C)NC(=O)[C@H](CC3CCCCC3)NC(=O)[C@H](CCN)NC(=O)[C@@H](CC(C)C)NC(=O)[C@H](C)N(C)C(=O)[C@H](Cc3ccc(OCC(=O)O)cc3)NC(=O)[C@H](Cc3ccc(-c4ccccc4)cc3)NC(=O)[C@H](Cc3ccc(OCC(=O)O)cc3)NC2=O)c1 [Example 1370] ({CH2CO}-TY(Carboxymethyl)D[Phe(3-Me)]Y(Carboxymethyl)[Bip]Y(Carboxymethyl)[NMeA][dL][Dab][Cha]VNC[Dab][AEEA][Aun]-OH; thioether N-14),13.9
6,CC[C@@H](C)[C@@H]1NC(=O)[C@H](Cc2ccc(-c3ccccc3)cc2)NC(=O)[C@H](C(C)C)NC(=O)[C@H](Cc2c[nH]c3ccccc23)NC(=O)[C@H](CC(=O)O)NC(=O)[C@H](Cc2ccc(O)cc2)NC(=O)[C@H](Cc2ccncc2)NC(=O)CSC[C@@H](C(=O)N[C@H](CC(N)=O)C(=O)NCCOCCOCC(=O)N[C@@H](CCC(=O)NCCOCCOCC(=O)N[C@@H](CCC(=O)NCCOCCOCC(=O)N[C@@H](CCCN)C(=O)NCCCCCCCCCCC(=O)O)C(=O)O)C(=O)O)NC(=O)[C@H](CO)NC(=O)[C@H](C(C)C)NC(=O)[C@H](CC2CCCCC2)NC(=O)[C@H](CC(N)=O)NC(=O)[C@@H](CC(C)C)NC(=O)[C@H](C)N(C)C1=O [Example 2020] ({CH2CO}-[4Pal]YDWV[Bip][aIle][NMeA][dL]N[Cha]VSC[dN][AEEA][γGlu][AEEA][γGlu][AEEA][Orn][Aun]-OH; thioether N-14),30.5
7,Cc1cccc(C[C@@H]2NC(=O)[C@H](CC(=O)O)NC(=O)[C@H](Cc3ccc(OCC(=O)O)cc3)NC(=O)[C@H](CN)NC(=O)CSC[C@@H](C(=O)N[C@@H](CCCN)C(=O)N[C@@H](CO)C(=O)NCCCCCCCCCCCC(=O)O)NC(=O)[C@H](C(C)O)NC(=O)[C@H](C(C)C)NC(=O)[C@H](CC3CCCCC3)NC(=O)[C@H](CCN)NC(=O)[C@@H](CC(C)C)NC(=O)[C@H](C)N(C)C(=O)[C@H](CCCNC(N)=O)NC(=O)[C@H](Cc3ccc(-c4ccccc4)cc3)NC(=O)[C@H](Cc3ccc(O)cc3)NC2=O)c1 (stereo partly drawn) [Example 2402] ({CH2CO}-[Dap]Y(Carboxymethyl)D[Phe(3-Me)]Y[Bip][Cit][NMeA][dL][Dab][Cha]V[Thr(3ξ)]C[Orn]S[12Ado]-OH; thioether N-14),51.7
8,CC(C)C[C@@H]1NC(=O)[C@H](Cc2c[nH]c3ccccc23)NC(=O)[C@H](CC(=O)O)NC(=O)[C@H](Cc2ccc(OCC(=O)O)cc2)NC(=O)[C@H](CCCCNC(=N)N)NC(=O)CSC[C@@H](C(=O)NCC(=O)NCCOCCOCC(=O)N[C@@H](CCCCN)C(=O)NCCCCCCCCCCC(=O)O)NC(=O)[C@H](CCCNC(N)=O)NC(=O)[C@H](C(C)C)NC(=O)[C@H](CC2CCCCC2)NC(=O)[C@H](CCN)NC(=O)[C@@H](CC(C)C)NC(=O)[C@H](C)N(C)C(=O)[C@H](C(C)C)NC(=O)[C@H](Cc2ccc(-c3ccccc3)cc2)NC1=O [Example 2181] ({CH2CO}-[hArg]Y(Carboxymethyl)DWL[Bip]V[NMeA][dL][Dab][Cha]V[Cit]CG[AEEA]K[Aun]-OH; thioether N-14),21.1

# Same assay, conditions: PE-labeled PD-L1-Ig 20 nM final, Jurkat-hPD-1 cells; read-out: Jurkat HPD1 PDL1 IC50
row,IC50 [nM],Structure (SMILES)
1,11.7,Cc1cccc(C[C@@H]2NC(=O)[C@H](CC(=O)O)NC(=O)[C@H](Cc3ccc(C(=O)O)cc3)NC(=O)[C@H](CCN)NC(=O)CSC[C@@H](C(=O)N[C@@H](CCN)C(=O)NCCOCCOCC(=O)NCCCCCCCCCCC(=O)O)NC(=O)[C@H](CCC(=O)O)NC(=O)[C@H](C(C)C)NC(=O)[C@H](CC3CCCCC3)NC(=O)[C@H](CCN)NC(=O)[C@@H](CC(C)C)NC(=O)[C@H](C)N(C)C(=O)[C@H](Cc3ccc(C(=O)O)cc3)NC(=O)[C@H](Cc3ccc(-c4ccccc4)cc3)NC(=O)[C@H](Cc3ccc(C(=O)O)cc3)NC2=O)c1 [Example 2546] ({CH2CO}-[Dab][Phe(4-COOH)]D[Phe(3-Me)][Phe(4-COOH)][Bip][Phe(4-COOH)][NMeA][dL][Dab][Cha]VEC[Dab][AEEA][Aun]-OH; thioether N-14)
